Reference: patent publication US6455530B1, “2R,4S,S,S- and 2S,4R,S,S-hydroxyitraconazole” (Sepracor Inc., priority 1996, dated 2002)

Columns and labels:
Candida albicans = test: Kirby-Bauer testing (paper disk zones of inhibition); format: cell-based; details: 10 μl of 10 mg/mL solution on 7 mm paper disk, Sabouraud Dextrose agar, 30° C. for 16 hours
Experimental: (§1) Actively growing cultures of Candida albicans, Cryptococcus neoformens and Saccharomnyces cerevisiae were prepared as described above. The cultures were diluted to a 0.5 McFarland standard and swabbed onto a 150 mm Sabouraud Dextrose agar plates. Paper disks (7 mm) were placed onto the agar plates using a disk dispenser. Next 10 μl of 10 mg/mL solutions of each sample hydroxy-itraconazole was pipetted onto separate paper disks. The plates were then incubated at 30° C. for 16 hours. Zones of inhibition were then measured in mm. Data Represent Zones of Inhibition in mm.

Cryptococcus neoformens = test: as above; format: cell-based; details: 10 μl of 10 mg/mL solution on 7 mm paper disk, Sabouraud Dextrose agar, 30° C. for 16 hours
Experimental: as §1

Saccharomyces cerevisae = test: as above; format: cell-based; details: 10 μl of 10 mg/mL solution on 7 mm paper disk, Sabouraud Dextrose agar, 30° C. for 16 hours
Experimental: as §1

[1] = oral, daily administration; cited from earlier work

SMILES	zone of inhibition at 10000 µg/mL (Candida albicans; Candida albicans) [mm]	zone of inhibition at 10000 µg/mL (Cryptococcus neoformens; Cryptococcus) [mm]	zone of inhibition at 10000 µg/mL (Saccharomyces cerevisae; Saccharomyces) [mm]	Time at which peak plasma levels are attained [1] [days]	Zones of Inhibition, Candida albicans (Candida albicans) [mm]	Zones of Inhibition, Cryptococcus neoformens (Cryptococcus neoformens) [mm]	Zones of Inhibition, Saccharomyces cerevisae (Saccharomyces cerevisae) [mm]
CCC(C)n1ncn(-c2ccc(N3CCN(c4ccc(OCC5COC(Cn6cncn6)(c6ccc(Cl)cc6Cl)O5)cc4)CC3)cc2)c1=O (racemic) [± Itraconazole, 4-[4-[4-[4-[[2-(2,4-dichlorophenyl)-2-(1H-1,2,4-triazol-1-ylmethyl)-1,3-dioxolan-4-yl]methoxy]phenyl]-1-piperazinyl]phenyl]-2,4dihydro-2-(1-methylpropyl)-3H-1,2,4triazol-3-one, reference compound]	17	22	15	15	–	–	–
C[C@H]([C@@H](C)O)n1ncn(-c2ccc(N3CCN(c4ccc(OC[C@H]5CO[C@](Cn6cncn6)(c6ccc(Cl)cc6Cl)O5)cc4)CC3)cc2)c1=O (single isomer, unassigned) [A diastereomer, (2R,4S)-4-[4-[4-[4-[[2-(2,4-Dichlorophenyl)-2-(1H-1,2,4-triazole-1-ylmethyl)-1,3-dioxolan-4-yl]methoxy]phenyl]-[-piperazinyl[phenyl]-2,4dihydro-2-[(1R*,2R*)-(2-hydroxy-1-methylpropyl)]-3H -1,2,4-triazol-3-one]	–	–	–	–	23	34	23
C[C@H]([C@@H](C)O)n1ncn(-c2ccc(N3CCN(c4ccc(OC[C@@H]5CO[C@@](Cn6cncn6)(c6ccc(Cl)cc6Cl)O5)cc4)CC3)cc2)c1=O (single isomer, unassigned) [B diastereomer, (2S,4R)-4-[4-[4-[4-[[2-(2,4-Dichlorophenyl)-2-(1H-1,2,4,-triazole-1-ylmethyl)-1,3-dioxolan-4-yl}methoxy]phenyl]-1-piperazinyl]phenyl]-2,4-dihydro-2-[(1R*,2R*)-(2-hydroxy-1-methylpropyl)-3H-1,2,4-triazol-3-one]	–	–	–	–	27	32	25
